The subject of one series is human osteoblastic cells. In words: Lucifer Yellow dye transfer in DDT-treated human osteoblast cells. Type of series: cell-based. The settings on record: DDT 13 μM, 60 minutes; control 14.5 cells. As to the method:
Human osteoblast cells: Cells were isolated from human bone marrow obtained by puncture of the posterior iliac spine of healthy volunteers (aged 20-36): 10-15 ml marrow material was collected in 15 ml PBS+Ca, Mg (Life Technologies, Cat.No. 14040) with 100 U/ml Heparin (Sigma, Cat.No. H-3149). The mononuclear fraction of the marrow was isolated on a Lymphoprep gradient (Nycomed Pharma, Cat.No. 1001967), by centrifugation at 2200 rpm for 30 min. After harvesting, the mononuclear fraction was washed once with culture medium and centrifuged at 1800 rpm for 10 min. Subsequently cells were counted and plated in culture medium at 8×10^6 cells/100 mm dish. hOB medium (all reagents obtained from Life Technologies): MEM w/o Phenol Red w/Glutamax (Cat.No. 041-93013) supplemented with 10% heat inactivated fetal calf serum (Cat.No. 10106) and 0.1% Penicillin/Streptomycin (Cat.No. 15140). Medium was changed the following day and the cells were cultured at 37° C. in 5%CO2 with medium change every 7 days. After 3-4 weeks of culture the cells had reached 70% confluence. The medium was then supplemented with 100 nM Dexamethasone (Sigma, Cat.No. D-4902) for 7 days. […]
The dye Lucifer Yellow (LY) was injected into one single human osteoblast in a monolayer. After 30 seconds, the number of cells containing dye was assessed. […]

Series [1] is described as follows: In vitro stability test in rabbit plasma (heparin). Type of series: in vitro ADME. Conditions: 37° C., 0.1 mg/ml, mean n=3. As to the method: (§1) The stability of peptides is analysed in different plasma and serum types. The peptides are incubated at 37° C. in plasma and samples taken at approx. 9 regular intervals between t=0 and t=156 min are analysed by HPLC.
(§2) This is done by subsequent injections of the drug, plasma, and a co-injection with the drug and the plasma, followed by optimisation of the LC method parameters until a satisfactory separation is obtained. Three parallel experiments are performed for each plasma type:100 μl of peptide is mixed with 900 μl plasma at t=0 and incubated at 37° C. (drug-plasma mixture conc. 0.1 mg/ml). Samples of 100 μl of the drug-plasma mixture are removed at appropriate intervals and the degradation stopped by precipitation of the sample with 10 μl MeCN:TFA 50:50 v/v. A control plasma sample without the drug treated in the same manner is also taken. The plasma samples are centrifuged for 15 min. at 12,000 rpm (Eppendorf centrifuge) at ambient temperature. The resulting supernatant solution is transferred to 300 μl HP autosamler vials and analyzed by HPLC. […] Temp.: 40° C. • Solvent: MeCN/MQW/TFA (0.1%). Run time: 25 min. • Inj.vol.:15 μL. […]
(§3) The samples are analyzed in the following order: blank, the peptide at 0.1 mg/mL, the plasma without the peptide, the three parallel samples for t=0, the three parallel samples for t=5 min. the three parallel samples for t=10 min. etc. […]

A short description of series [2]: In vitro stability test in human serum. Type of series: in vitro ADME. The settings on record: 37° C., 0.1 mg/ml, mean n=3. As to the method: as §1, §2, §3

The results in this text go back to patent publication US7250397B2, “Antiarrhythmic peptides” (Zealand Pharma A/S, priority 2000, dated 2007).

[ ]: non-standard residue; d: D form. Hyp = O=C(O)[C@@H]1C[C@@H](O)CN1

As for `Clc1ccc(C(c2ccc(Cl)cc2)C(Cl)(Cl)Cl)cc1` [DDT, 1,1-bis(p-chlorophenyl)-2,2,2-trichlorethane], in the series with human osteoblastic cells, the “median number of cells containing dye” value was found to be 7 cells.

Take H-PYNGAG[Hyp]-NH2 [Compound 27]: the T1/2 in series [1] worked out at 3.8 h; in series [2], 3.1 h.
